US9309263B2, “Fused multi-cyclic sulfone compounds as inhibitors of beta-secretase and methods of use thereof” (AMGEN INC., priority 2013, dated 2016)
Like-named read-outs stand apart in the source and are kept apart here.

Legend:
[1] = target: Beta Secretase enzyme (BACE) (Homo sapiens, UniProt P56817); assay: In vitro enzymatic BACE FRET assay; assay type: biochemical; conditions: read-out: BACE1 FRET assay IC50
Method in brief: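 Cleavage of a quenched 50 nM FRET peptide substrate, read as fluorescence (excitation 488 nm, […]) after 1 h and Tris quench to neutrality. Buffer: 0.05 M acetate pH 4.2 with 10% DMSO and 100 uM genapol. Inhibitor dilutions were pre-incubated 1 h with 0.2 nM enzyme.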

[2] = system: Aβ 40 in conditioned medium of cells stably expressing Amyloid Precursor Protein (APP); assay: In vitro BACE cell-based assay (Aβ 40 sandwich ELISA); conditions: Homo sapiens, HEK293
Method in brief: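 Aβ40 in conditioned medium measured by pAb40/biotin-6E10 sandwich ELISA with time-resolved europium fluorescence, after 24 h exposure of stable APP cells to compounds (10-point series starting 100 μM or 10 μM; 0.1% DMSO). IC50 fitted from percent of control against concentration.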

Cathepsin D (Cat D) = Cathepsin D (Cat D) (Homo sapiens, UniProt P07339); assay: In vitro enzymatic Cathepsin D (Cat D) FRET assay; assay type: biochemical
Method in brief: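 FRET peptide substrate (20 nM) is cleaved by CHO-derived recombinant enzyme (9 nM) for 1 h after a 1 h inhibitor pre-incubation, at pH 3.5 in citrate buffer with 5 mM CHAPS and 10% DMSO. Tris addition ends the reaction; fluorescence measured at 500 nm excitation, 580 nm emission.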

[3] = average IC50, in vitro enzymatic BACE FRET assay
[4] = average IC50, HEK cell assay, Aβ 40 readout
[5] = Cathepsin D FRET assay, read-out: CatD IC50
[6] = text summary referring to data in Table 2

Chain of Cathepsin D (Cat D) (P07339 65-412, species assumed): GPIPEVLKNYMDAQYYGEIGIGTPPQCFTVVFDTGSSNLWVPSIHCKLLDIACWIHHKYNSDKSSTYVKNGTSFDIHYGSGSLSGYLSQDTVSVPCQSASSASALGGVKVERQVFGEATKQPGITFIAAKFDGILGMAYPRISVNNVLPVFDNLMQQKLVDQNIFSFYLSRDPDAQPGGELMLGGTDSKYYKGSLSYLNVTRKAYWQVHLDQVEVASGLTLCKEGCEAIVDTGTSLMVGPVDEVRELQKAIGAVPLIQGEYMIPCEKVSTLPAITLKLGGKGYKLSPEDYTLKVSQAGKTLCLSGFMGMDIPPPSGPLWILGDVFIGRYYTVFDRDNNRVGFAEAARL
Chain of Beta Secretase enzyme (BACE) (P56817 46-501): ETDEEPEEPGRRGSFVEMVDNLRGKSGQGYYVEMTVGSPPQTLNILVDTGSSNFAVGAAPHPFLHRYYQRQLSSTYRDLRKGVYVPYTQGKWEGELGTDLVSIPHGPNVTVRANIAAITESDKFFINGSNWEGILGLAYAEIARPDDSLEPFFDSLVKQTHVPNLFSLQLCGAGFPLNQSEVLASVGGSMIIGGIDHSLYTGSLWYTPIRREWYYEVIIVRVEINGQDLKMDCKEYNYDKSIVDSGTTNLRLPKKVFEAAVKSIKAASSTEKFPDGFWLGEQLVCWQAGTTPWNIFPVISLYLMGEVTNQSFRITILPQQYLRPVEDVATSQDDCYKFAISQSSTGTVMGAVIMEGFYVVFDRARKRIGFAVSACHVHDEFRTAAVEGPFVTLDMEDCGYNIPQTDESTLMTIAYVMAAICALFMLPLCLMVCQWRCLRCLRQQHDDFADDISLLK

Row | IC50 ([1]; average IC50) | IC50 ([2]; HEK cell, average IC50) | IC50 (Cathepsin D (Cat D); read-out: CatD IC50) | IC50 [1, 3] | IC50 [2, 4] | IC50 (Cathepsin D (Cat D); [5]) | IC50 ([2]; HEK cells, average IC50) | IC50 (Cathepsin D (Cat D); [6]) | SMILES
1 | 0.021 µM | 0.02 µM | 757 µM | – | – | – | – | – | Cc1cc(Cl)cnc1C(=O)Nc1ccc2c(c1)[C@@]1(C)N=C(N)C(C)(C)S(=O)(=O)[C@H]1CCC2 [Example 9, N-((4a8,11bR)-2-amino-3,3,11b-trimethyl-4,4-dioxido-3,4a,5,6,7,11b-hexahydrobenzo[3,4]cyclohepta[1,2-b][1,4]thiazin-10-yl)-5-chloro-3-methyl-2-pyridinecarboxamide]
2 | – | – | – | 0.002 µM | 0.0008 µM | 357 µM | – | – | Cc1cc(C(F)(F)F)cnc1C(=O)Nc1ccc2c(c1)[C@@]1(C)N=C(N)C(C)(C)S(=O)(=O)[C@@H]1CCS2 [Example 132, N-((4aR,11bR)-2-amino-3,3,11b-trimethyl-4,4-dioxido-4a,5,6,11b-tetrahydro-3H-[1]benzothiepino[4,5-b][1,4]thiazin-10-yl)-3-methyl-5-(trifluoromethyl)-2-pyridinecarboxamide]
3 | 0.005 µM | – | > 400 µM | – | – | – | 0.003 µM | – | Cc1cc(C(F)F)cnc1C(=O)Nc1ccc2c(c1)[C@@]1(C)N=C(N)C(C)(C)S(=O)(=O)[C@@H]1CCO2 [Example 163, N-((4aR,11bR)-2-amino-3,3,11b-trimethyl-4,4-dioxido-4a,5,6,11b-tetrahydro-3H-[1]benzoxepino[4,5-b][1,4]thiazin-10-yl)-5-(difluoromethyl)-3-methyl-2-pyridinecarboxamide]
4 | 0.084 µM | 0.058 µM | 1080 µM | – | – | – | – | > 1200 µM | CC1(C)C(N)=N[C@]2(C)c3cc(NC(=O)c4cc5ccccc5cn4)ccc3OCC[C@H]2S1(=O)=O [Example 30, N-((4aR,11bR)-2-amino-3,3,11b-trimethyl-4,4-dioxido-4a,5,6,11b-tetrahydro-3H-[1]benzoxepino[4,5-b][1,4]thiazin-10-yl)-3-isoquinolinecarboxamide]
5 | – | – | – | 0.004 µM | 0.017 µM | 385 µM | – | – | C#CCOc1cnc2c(Nc3ccc4c(c3)[C@@]3(C)N=C(N)C(C)(C)S(=O)(=O)[C@@H]3CC(C)(C)O4)nccc2n1 [Example 141, (4aR,11bR)-3,3,6,6,11b-pentamethyl-N^~10^~-(2-(2-propyn-1-yloxy)pyrido[3,4-b]pyrazin-5-yl)-4a,5,6,11b-tetrahydro-3H-[1]benzoxepino[4,5-b][1,4]thiazine-2,10-diamine 4,4-dioxide]
6 | 0.008 µM | – | 186 µM | – | – | – | 0.011 µM | – | CC1(C)C(N)=N[C@]2(C)c3cc(Nc4ncnc5cc(Cl)cnc45)ccc3OCC[C@H]2S1(=O)=O [Example 176, (4aR,11bR)-N^~10^~-(7-chloropyrido[3,2-d]yrimidin-4-yl)-3,3,11b-trimethyl-4a,5,6,11b-tetrahydro-3H-[1]benzoxepino[4,5-b][1,4]thiazine-2,10-diamine 4,4-dioxide]
7 | 0.012 µM | – | > 400 µM | – | – | – | 0.004 µM | – | CC1(C)C(N)=N[C@]2(C)c3cc(NC(=O)c4ncc(C(F)F)cc4Cl)ccc3OCC[C@H]2S1(=O)=O [Example 172, N-((4aR,11bR)-2-amino-3,3,11b-trimethyl-4,4-dioxido-4a,5,6,11b-tetrahydro-3H-[1]benzoxepino[4,5-b][1,4]thiazin-10-yl)-3-chloro-5-(difluoromethyl)-2-pyridinecarboxamide]
8 | – | – | – | 0.056 µM | 0.067 µM | 1060 µM | – | – | CC(C#N)Oc1ccc(C(=O)Nc2ccc3c(c2)[C@@]2(C)N=C(N)C(C)(C)S(=O)(=O)[C@@H]2CCO3)nc1 (mixture of isomers) [Example 125, N-((4aR,11bR)-2-amino-3,3,11b-trimethyl-4,4-dioxido-4a,5,6,11b-tetrahydro-3H-[1]benzoxepino[4,5-b][1,4]thiazin-10-yl)-5-((1R)-1-cyanoethoxy)-2-pyridinecarboxamide, N-((4aR,11bR)-2-amino-3,3,11b-trimethyl-4,4-dioxido-4a,5,6,11b-tetrahydro-3H-[1]benzoxepino[4,5-b][1,4]thiazin-10-yl)-5-((15)-1-cyanoethoxy)-2-pyridinecarboxamide]
9 | – | – | – | 0.002 µM | 0.0005 µM | 202 µM | – | – | C#CCOc1cnc(C(=O)Nc2ccc3c(c2)[C@@]2(C)N=C(N)C(C)(C)S(=O)(=O)[C@@H]2CC(C)(C)O3)cn1 [Example 143, N-((4aR,11bR)-2-Amino-3,3,6,6,11b-pentamethyl-4,4-dioxido-4a,5,6,11b-tetrahydro-3H-benzo[6,7]oxepino[4,5-b][1,4]thiazin-10-yl)-5-(prop-2-yn-1-yloxy)pyrazine-2-carboxamide]
10 | – | – | – | 0.011 µM | 0.014 µM | 1030 µM | – | – | COc1cnc2c(Nc3ccc4c(c3)[C@@]3(C)N=C(N)C(C)(C)S(=O)(=O)[C@@H]3CCO4)nccc2n1 [Example 156, (4aR,11bR)-N^~10^~-(2-methoxypyrido[3,4-b]pyrazin-5-yl)-3,3,11b-trimethyl-4a,5,6,11b-tetrahydro-3H-[1]benzoxepino[4,5-b][1,4]thiazine-2,10-diamine 4,4-dioxide]
11 | 0.0007 µM | – | 624 µM | – | – | – | 0.0003 µM | – | CC#CCOc1cnc(C(=O)Nc2ccc3c(c2)[C@@]2(C)N=C(N)C(C)(C)S(=O)(=O)[C@@H]2CCO3)cn1 [Example 191, N-((4aR,11bR)-2-amino-3,3,11b-trimethyl-4,4-dioxido-4a,5,6,11b-tetrahydro-3H-[1]benzoxepino[4,5-b][1,4]thiazin-10-yl)-5-(2-butyn-1-yloxy)-2-pyrazinecarboxamide]
12 | 0.041 µM | 0.041 µM | 393 µM | – | – | – | – | – | COc1cnc2c(Nc3ccc4c(c3)[C@@]3(C)N=C(N)C(C)(C)S(=O)(=O)[C@@H]3CCC4)nccc2n1 [Example 48, (4aR,11bR)-N^~10^~-(2-methoxypyrido[3,4-b]pyrazin-5-yl)-3,3,11b-trimethyl-3,4a,5,6,7,11b-hexahydrobenzo[3,4]cyclohepta[1,2-b][1,4]thiazine-2,10-diamine 4,4-dioxide]
13 | 0.009 µM | – | 1510 µM | – | – | – | 0.017 µM | – | CC1(C)C(N)=N[C@]2(C)c3cc(NC(=O)c4ccc(OCC5CC5)cn4)ccc3OCC[C@H]2S1(=O)=O [Example 175, N-((4aR,11bR)-2-amino-3,3,11b-trimethyl-4,4-dioxido-4a,5,6,11b-tetrahydro-3H-[1]benzoxepino[4,5-b][1,4]thiazin-10-yl)-5-(cyclopropylmethoxy)-2-pyridinecarboxamide]
14 | – | – | – | 0.014 µM | 0.003 µM | 168 µM | – | – | COc1cnc(C(=O)Nc2ccc3c(c2)[C@@]2(C)N=C(N)C(C)(C)S(=O)(=O)[C@@H]2CCS3)cn1 [Example 117, N-((4aR,11bR)-2-amino-3,3,11b-trimethyl-4,4-dioxido-4a,5,6,11b-tetrahydro-3H-[1]benzothiepino[4,5-b][1,4]thiazin-10-yl)-5-methoxy-2-pyrazinecarboxamide]
15 | 0.038 µM | 0.01 µM | 1370 µM | – | – | – | – | > 1200 µM | CCc1ccc(C(=O)Nc2ccc3c(c2)[C@@]2(C)N=C(N)C(C)(C)S(=O)(=O)[C@@H]2CCO3)nc1 [Example 29, N-((4aR,11bR)-2-amino-3,3,11b-trimethyl-4,4-dioxido-4a,5,6,11b-tetrahydro-3H-[1]benzoxepino[4,5-b][1,4]thiazin-10-yl)-5-ethyl-2-pyridinecarboxamide]
